Square brackets hold non-standard residues; d marks the D form. Peptide text beside a SMILES is read from it.

In experiment [1] the test system is neonatal rat cardiac ventricular myocytes. Kind of experiment: Neonatal rat cardiac myocyte hypertrophy assay (crystal violet stain, microscopic hypertrophy score). It is filed as cell-based. An excerpt: A miniaturized assay is preferably used to assay the suspected antagonist(s) for hypertrophy-inhibiting activity. In this assay the medium used allows the cells to survive at a low plating density without serum. By plating directly into this medium, washing steps are eliminated so that fewer cells are removed. The plating density is important: many fewer cells and the survival is reduced; many more cells and the myocytes begin to self-induce hypertrophy.
The preferred hypertrophy assay comprises:
(a) pre-coating the wells of 96-well tissue culture plates with a medium containing calf serum, preferably D-MEM/F-12 medium containing 4% fetal calf serum, wherein preferably the wells are incubated with the medium for about eight hours at about 37°C.;
(c) plating a suspension of myocytes in the inner 60 wells at 7.5×10^4 cells per mL in D-MEM/F-12 medium supplemented with insulin, transferrin, and aprotinin;
(d) culturing the myocytes for at least 24 hours in the presence of LIF or endothelin;
(e) adding the test substance;
(f) culturing the cells with the test substance (preferably for about 24-72 hours, more preferably for about 48 hours); and
(g) evaluating hypertrophy, preferably after crystal violet stain, by microscopic examination.
(§1) Neonatal rat cardiac ventricular myocytes were cultured in 96-well plates 35 as described by Pennica et al., supra. Briefly, myocytes were isolated from one-day-old Sprague-Dawley rats by a series of collagenase digestions followed by Percoll™ gradient purification. Iwaki et al., J Biol Chem., 265: 13809-13817 (1990). The myocytes, which band at the lower gradient interface, were collected, washed twice, and re-suspended in D-MEM/F12 medium with 15% (vol/vol) fetal calf serum. The cells were diluted into serum-free D-MEM/F12 medium supplemented with 10 μg/mL transferrin, 1 μg/mL insulin, 1 μg/mL aprotinin, 2-mmol/L glutamine, 100 U/mL penicillin G, and 100 μg/mL streptomycin (assay medium) to a final density of 7.5×10^4 cells per mL. The final serum concentration of this assay medium with cells was <0.1%. Myocytes were plated 200 μL per well in 96-well, flat-bottomed plates that had previously been coated with D-MEM/F12 medium with 4% (vol/vol) fetal calf serum for 8 hours at 37° C. After 24 hours at 37° C. in 5% CO2, test substances were added. Forty-eight hours after the test substances were added, the cells were fixed and stained with 0.5% (wt/vol) crystal violet in methanol and formaldehyde, and the hypertrophy was scored on a scale of 1 to 7 by microscopic evaluation. Untreated cells were used as the negative control and scored as a 3. Toxic effects were scored from 0 to 2. The positive control in each assay was 100 μmol/L phenylephrine, which was scored as 7.

The test system is the same in experiment [2]. Put plainly: Myocyte morphology and contractile fiber organization (phallacidin f-actin stain, confocal microscopy). In kind it is cell-based. Particulars: for organization of contractile fibers (f-actin): 48 hours exposure, fluorescent phallacidin stain. How it is done: as §1
The myocytes were plated in 4-chamber Lab Tek™ glass chamber slides pre-coated for 8 hours with 4% (vol/vol) fetal calf serum in D-MEM/F12 medium and cultured for 24 hours. They were exposed to test substances for 48 hours and then washed 3× in phosphate buffered saline (PBS) and fixed in 95% (vol/vol) ethanol for 15 minutes. The slides were then washed 3×0 in PBS with 0.1% (vol/vol) Tween-20™ surfactant, blocked for 30 minutes with 1% (wt/vol) BSA in PBS with 0.1% Tween-20™ surfactant, and incubated with phallacidin conjugated to BODIPY FL™ brand reagent (10 μg/mL in 1% BSA in PBS) (Molecular Probes, Eugene Oreg.) for 40 minutes to stain the f-actin present in the contractile fibers. The slides were then washed 3× with PBS in 0.1% Tween-20™ surfactant. Images of the phallacidin-stained cells were acquired on a Ultima™ laser-scanning confocal microscope (Meridian Instruments, Okemos, Mich.). A 1.4 NA 60×™ oil-immersion objective was utilized coupled with 488-nm excitation, with the resulting fluorescence measured following a 525-nm long-pass filter. […] The final images were constructed with a maximum fluorescence projection algorithm by compressing the multiple z or depth images into a single two-dimensional representation.

Experiment [3] has the same test system. Particulars: neonatal rat cardiac myocytes in culture; Pennica et al. 1995; cited from earlier work.

As for `CC(C)C[C@@H]1NC(=O)[C@@H](C(C)C)NC(=O)[C@@H]2CCCN2C(=O)[C@@H](CC(=O)O)NC(=O)[C@@H](Cc2c[nH]c3ccccc23)NC1=O` [BQ-123] (cyclo(L[dW][dD]P[dV])), the “inhibition of NCM hypertrophy activity” value in experiment [1] (FIG. 3, 100 μmol/L BQ-123, 50 μg/mL LIF Mab) is recorded as “partially inhibited”. The “blocking of hypertrophy activity induced by endothelin-1” value in experiment [1] (FIG. 4A/5A, BQ-123 1-100 μmol/L, LIF Mab 0.5-50 μg/mL) is “blocked”. In experiment [1] (FIG. 4B/5B, BQ-123 1-100 μmol/L, LIF Mab 0.5-50 μg/mL), the “blocking/neutralization of hypertrophy activity induced by mouse LIF” value is “not”. For the same molecule, in experiment [1] (FIG. 4C/5C, BQ-123 1-100 μmol/L, LIF Mab 0.5-50 μg/mL), the “blocking of hypertrophy activity induced by phenylephrine” value is on record as “not”. Further, the “blocking of hypertrophy activity induced by CT-1” value in experiment [1] (FIG. 4D/5D, BQ-123 1-100 μmol/L, LIF Mab 0.5-50 μg/mL) is on record as “not”. For the same molecule, the “effect on myocyte morphology by itself” value in experiment [1] (inhibitor alone, no inducer) was “no effect”. Further, the “morphology of myocytes treated with NCM plus inhibitor” value in experiment [2] (NCM and BQ-123 or LIF Mab) was “resembled those treated with purified LIF”.
As to `CC[C@H](C)[C@H](NC(=O)[C@H](CC(=O)O)NC(=O)[C@H](CC(C)C)NC(=O)[C@H](Cc1c[nH]cn1)NC(=O)[C@@H]1CSSC[C@H](N)C(=O)N[C@@H](CO)C(=O)N[C@H]2CSSC[C@H](NC(=O)[C@H](CCC(=O)O)NC(=O)[C@H](CCCCN)NC(=O)[C@H](CC(=O)O)NC(=O)[C@H](CCSC)NC(=O)[C@H](CC(C)C)NC(=O)[C@H](CO)NC(=O)[C@H](CO)NC2=O)C(=O)N[C@@H](C(C)C)C(=O)N[C@@H](Cc2ccc(O)cc2)C(=O)N[C@@H](Cc2ccccc2)C(=O)N1)C(=O)N[C@H](C(=O)N[C@@H](Cc1c[nH]c2ccccc12)C(=O)O)[C@@H](C)CC` [endothelin-1], the “hypertrophic response (myocyte cell size and ANP production)” value in experiment [1] (purified factors, even at nanomolar concentrations) is “partial hypertrophic responses”. Further, the morphology of myocytes result in experiment [2] (48-hour exposure to maximal concentrations) was “more compact with no processes”. Also, the “organization of contractile fibers (f-actin)” value in experiment [2] was “not organized in parallel, had a tangled appearance, and did not show prominent banding”.
Take `CNC[C@H](O)c1cccc(O)c1` [phenylephrine]: in experiment [1] (100 μmol/L phenylephrine, scale 1 to 7, untreated 3), the “hypertrophy score (positive control)” value came to 7. In addition, the “organization of contractile fibers (f-actin)” value in experiment [2] is recorded as “organized in parallel arrays with prominent banding”.

B1: CT-1: cardiotrophin-1, member of the family of proteins that bind to GH/cytokine receptors (protein, UniProt Q16619 1-201, looked up)
Cardiotrophin-1: MSRREGSLEDPQTDSSVSLLPHLEAKIRQTHSLAHLLTKYAEQLLQEYVQLQGDPFGLPSFSPPRLPVAGLSAPAPSHAGLPVHERLRLDAAALAALPPLLDAVCRRQAELNPRAPRLLRRLEDAARQARALGAAVEALLAALGAANRGPRAEPPAATASAASATGVFPAKVLGLRVCGLYREWLSRTEGDLGQLLPGGSA
As to B1, the “hypertrophy activity among proteins that bind GH/cytokine receptors” value in experiment [3] is “most potent hypertrophy activity”.

The record behind these values is patent US6653287B1, “Use of leukemia inhibitory factor and endothelin antagonists” (Genentech, Inc., priority 1995, dated 2003).
